Results as given in publication PMC9082844 (Journal of Biomedical Science, 2022).
Where two headings read alike, the source gives them in different places.

Assays:
KDM4A = target: T1, KDM4A (Homo sapiens, UniProt O75164); assay: FDH-coupled demethylase assay, KDM4A; format: biochemical; details: pyrocatechol analogue; read-out: inhibitory effect
T1 sequence (O75164 1-1064): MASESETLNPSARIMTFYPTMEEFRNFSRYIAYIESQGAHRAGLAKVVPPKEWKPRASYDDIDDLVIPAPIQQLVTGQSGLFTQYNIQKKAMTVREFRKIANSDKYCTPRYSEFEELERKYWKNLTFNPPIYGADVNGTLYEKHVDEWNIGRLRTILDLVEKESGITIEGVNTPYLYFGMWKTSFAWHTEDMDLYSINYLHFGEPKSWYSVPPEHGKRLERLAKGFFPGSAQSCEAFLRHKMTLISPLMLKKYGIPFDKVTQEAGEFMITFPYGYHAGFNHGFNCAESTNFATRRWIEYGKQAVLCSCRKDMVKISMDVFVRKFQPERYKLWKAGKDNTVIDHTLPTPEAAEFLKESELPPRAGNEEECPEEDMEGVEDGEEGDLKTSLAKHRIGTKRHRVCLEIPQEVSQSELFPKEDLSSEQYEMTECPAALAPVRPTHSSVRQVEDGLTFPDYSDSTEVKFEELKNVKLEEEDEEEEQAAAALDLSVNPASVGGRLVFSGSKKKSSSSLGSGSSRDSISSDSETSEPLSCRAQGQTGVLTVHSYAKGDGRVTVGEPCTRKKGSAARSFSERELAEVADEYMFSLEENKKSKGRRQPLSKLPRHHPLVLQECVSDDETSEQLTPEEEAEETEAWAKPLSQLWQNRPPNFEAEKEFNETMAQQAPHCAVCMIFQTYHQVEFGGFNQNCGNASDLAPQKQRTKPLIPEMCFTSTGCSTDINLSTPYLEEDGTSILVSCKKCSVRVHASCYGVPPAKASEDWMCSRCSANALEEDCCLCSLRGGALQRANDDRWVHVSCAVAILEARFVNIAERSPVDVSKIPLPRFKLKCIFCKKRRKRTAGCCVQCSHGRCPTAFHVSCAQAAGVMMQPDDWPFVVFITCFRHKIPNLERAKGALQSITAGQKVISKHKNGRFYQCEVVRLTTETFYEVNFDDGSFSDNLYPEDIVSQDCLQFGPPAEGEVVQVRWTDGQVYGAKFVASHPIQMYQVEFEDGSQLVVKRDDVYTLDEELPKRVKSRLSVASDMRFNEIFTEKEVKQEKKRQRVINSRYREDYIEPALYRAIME

JMJD2E/KDM4E = tested on: JMJD2E/KDM4E; design: method as in PMID 24260783, PMID 21124847; details: in vitro; cited from earlier work
CWR22Rv1 = assay: MTT assay, CWR22Rv1; format: cell-based; details: 3 days
Description: (§1) Cells (3 × 10^3) were seeded in a 96-well plate 1 day before the treatment. Cell proliferation was measured by MTT colorimetric assay according to the manufacturer’s instruction (Roche, Indianapolis, IN, USA).
(§2) B H3K9me3 and H3K36me3 levels in myricetin-treated C4-2B cells for 2 days. The H3K9me3, H3K36me3, and H3 signals were detected in cell lysates by western blot analysis. M myricetin

C4-2B = assay: MTT assay, C4-2B; format: cell-based; details: 72 h, 3 days, read-out: IC50, proliferation
KDM4B [1] = target: T2, KDM4B (Homo sapiens, UniProt O94953); assay: H3 demethylation with histones as substrate, Western blot, KDM4B; format: biochemical; details: 50 μM myricetin (legend also 100 μM inhibitor), 37 °C 30 min
T2 sequence (O94953 1-1096): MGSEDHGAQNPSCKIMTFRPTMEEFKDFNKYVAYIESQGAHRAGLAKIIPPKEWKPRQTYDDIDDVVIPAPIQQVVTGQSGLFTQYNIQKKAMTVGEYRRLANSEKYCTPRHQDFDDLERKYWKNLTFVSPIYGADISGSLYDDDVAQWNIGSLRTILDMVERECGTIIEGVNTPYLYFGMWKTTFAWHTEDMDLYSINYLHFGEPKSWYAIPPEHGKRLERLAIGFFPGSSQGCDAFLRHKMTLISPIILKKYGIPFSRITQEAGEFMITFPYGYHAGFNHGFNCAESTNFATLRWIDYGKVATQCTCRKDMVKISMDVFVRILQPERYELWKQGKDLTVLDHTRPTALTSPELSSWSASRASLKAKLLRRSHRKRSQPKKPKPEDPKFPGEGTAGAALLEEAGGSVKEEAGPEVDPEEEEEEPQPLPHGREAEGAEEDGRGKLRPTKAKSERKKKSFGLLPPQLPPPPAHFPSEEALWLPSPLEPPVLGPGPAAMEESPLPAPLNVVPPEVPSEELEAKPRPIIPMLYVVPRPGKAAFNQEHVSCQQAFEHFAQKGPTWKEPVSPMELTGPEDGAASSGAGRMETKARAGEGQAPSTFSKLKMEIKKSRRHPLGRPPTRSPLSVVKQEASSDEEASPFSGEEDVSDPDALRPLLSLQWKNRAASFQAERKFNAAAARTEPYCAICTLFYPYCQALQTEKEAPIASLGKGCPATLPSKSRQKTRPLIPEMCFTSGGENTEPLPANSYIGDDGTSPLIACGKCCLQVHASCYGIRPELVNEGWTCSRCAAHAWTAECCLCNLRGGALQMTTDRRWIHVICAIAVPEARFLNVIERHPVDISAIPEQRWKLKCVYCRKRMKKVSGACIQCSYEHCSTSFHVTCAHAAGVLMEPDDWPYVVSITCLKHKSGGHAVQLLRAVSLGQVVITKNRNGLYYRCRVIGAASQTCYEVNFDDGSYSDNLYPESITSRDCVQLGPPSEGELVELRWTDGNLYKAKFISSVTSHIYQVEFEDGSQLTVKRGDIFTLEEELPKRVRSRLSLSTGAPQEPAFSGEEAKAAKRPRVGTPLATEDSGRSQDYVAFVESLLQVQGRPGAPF

KDM4B [2] = target: T2, KDM4B; assay: FDH-coupled demethylase assay, KDM4B; format: biochemical
Description: All the reagents were stored at -30 °C.

[3] = cited from earlier work
RWPE-1 = assay: MTT assay, RWPE-1; format: cell-based; details: immortalized normal RWPE-1, 3 days
Description: as §1, §2

LNCaP cells = assay: MTT assay, LNCaP; format: cell-based; details: Homo sapiens, 72 h, 3 days, read-out: IC50, cell viability
Description: as §1
The IC50 value of each drug was determined by treating cells with the drug (0‒160 μM) for three days. For combination evaluation, a twofold serial dilution of each drug and its combination points above and below its IC50 value was used in an array format. Combination index (CI) values were calculated by CompuSyn software. The values of the combination dose–response curve, which represents drug-effect-shift analysis, were normalized to IC50 values of each single molar concentration of drugs (IC50 eq), and the plots were generated by Graphpad Prism 7.
as §2

C4-2B cells = assay: Histone methylation levels in treated C4-2B cells, western blot; format: cell-based; details: treated 2 days
Description: Total cell lysates were obtained by lysing the cell with buffer [50 mM Tris–HCl pH7.5 (Thermo Fisher Scientific, Waltham, MA, USA), 150 mM NaCl (Honeywell International, Inc., Charlotte, NC, USA), 0.5% Triton X-100 (Sigma-Aldrich), 10% glycerol (Honeywell International, Inc.), 1 mM EDTA (Affymetrix Inc.), and cock-tail protease inhibitors] for 15 min on ice, followed by 10 min of sonication cycle (30 s on, 30 s off) on ice. The level of total histone 3 and trimethylated histone H3K9 was analyzed by western blotting using anti-histone 3 (Cell Signaling, Danvers, MA, USA) and anti-H3K9me3 (Millipore, Burlington, MA, USA).
as §2

LNCaP cell = tested on: LNCaP cell; design: method as in PMID 24971742; details: cited from earlier work
C4-2B xenografts = assay: C4-2B xenograft; format: in vivo, Balb/c nu/nu mice
Description: C4-2B cells (1 × 10^6 cells) were suspended in a culture medium and mixed with Matrigel Matrix (BD, Franklin Lakes, NJ, USA). The mixtures were implanted subcutaneously into six- to eight-week-old male Balb/c nu/nu mice. […] Tumor volumes were measured for up to 3 weeks. The tumor volume was calculated using the formula: length × width × height × 0.52. Statistical analysis was conducted as described below. The animal protocols for mice experiments were approved by National Tsing Hua University Institutional Animal Care and Use Committee (approval number: NTHU-IACUC-10478) and carried out under the institutional guidelines with animal welfare standards.
Cells were treated with different concentrations of M or PLGA-M for 24 h, followed by MTT assay. B C4-2B cells (1 × 10^6) were implanted subcutaneously in the hindlimb of nude mice. […] Tumor volumes were measured for up to 3 weeks. Tumor volume was calculated using the formula (length × width × height × 0.52). Statistical significance was evaluated using Student’s t-test. C Representative IHC images of Ki67 and CD31 analysis of xenograft tumor sections from mice treated with vehicle, PLGA-M, Enza, or Enza + PLGA-M. D The proportion of Ki67 + cell was rescored in each field (400 ×) for six random fields in each group of IHC images. CD31 positive vessels in each field (100 ×) were scored for six random fields in each group. Significance was calculated using Student’s t-test. *P < 0.05; **P < 0.01; ***P < 0.001

O=C(O)c1ccc(O)c(O)c1 [BPRKD063S0, 3,4-dihydroxybenzoic acid]
IC50 (KDM4A): 0.56 µM

CN(C)CCCNC(=O)c1ccc(-c2cc(O)c3ncccc3c2)cc1 [ML324]
inhibitory activity toward JMJD2E/KDM4E (JMJD2E/KDM4E): submicromolar

O=c1c(O)c(-c2cc(O)c(O)c(O)c2)oc2cc(O)cc(O)c12 [Myricetin, 3,5,7-trihydroxy-2-(3,4,5-trihydroxyphenyl)-4H-chromen-4-one]
proliferation (CWR22Rv1): significantly reduced | IC50 (C4-2B): 20.6 ± 0.9 µM | demethylation of H3K9me3 or H3K36me3 by KDM4B (KDM4B [1]): blocked | Ki (KDM4B [2]; increasing concentrations of H3K9me3 peptide, read-out: Ki, non-competitive with H3K9me3 peptide, KDM4B): 1.01 µM | Ki (KDM4B [2]; increasing concentrations of α-KG, Lineweaver–Burk, read-out: Ki, competitive with α-KG, KDM4B): 0.53 µM | bioavailability through the oral route [3]: poor | effect on cell growth (RWPE-1): essentially no effect | IC50 (LNCaP cells): 18.5 ± 0.8 µM | H3K9me3 level vs untreated cells (C4-2B cells): higher level | H3K36me3 signal vs untreated cells (C4-2B cells): comparable

O=[N+]([O-])c1cc([N+](=O)[O-])c(/C=C/c2ccc(Cl)c(Cl)c2)cc1/C=C/c1ccc(Cl)c(Cl)c1 [NSC636819]
LNCaP cell proliferation (LNCaP cell): strongly inhibits

O=c1c(O)c(-c2ccc(O)c(O)c2)oc2cc(O)cc(O)c12 [Quercetin, 2-(3,4-dihydroxyphenyl)-3,5,7-trihydroxychromen-4-one]
IC50 (KDM4B [2]; FDH-coupled assay): 2.4 µM | KDM4B Relative Activity (%) (KDM4B [2]; FDH-coupled assay, compound concentration not given): 5.3%

CNC(=O)c1ccc(N2C(=S)N(c3ccc(C#N)c(C(F)(F)F)c3)C(=O)C2(C)C)cc1F [enzalutamide]
tumor growth vs vehicle at day 13 (C4-2B xenografts; PLGA-M i.p. 20 mg/kg three times a week, Enza oral 12.5 mg/kg five times a week, p = 0.0002): significant impairment of tumor growth | CD31 in xenografts (IHC) (C4-2B xenografts; vs vehicle group): significantly higher level of CD31 was detected in the vehicle group | Ki-67 expression in xenografts (IHC) (C4-2B xenografts; vs vehicle group): significantly lower
